From ChEMBL document CHEMBL5727794, “P2X7 modulators” (2020)

Key:
P2X purinoceptor 7 [1] = target: T1, P2X purinoceptor 7 (Homo sapiens, UniProt Q99572); test: (§1) On the day of the experiment, cell membrane preparations were made according to standard published methods. The total assay volume was 100 μl:10 μl compound (10×)+(b) 40 μl tracer (2.5×)+50 μl membrane (2×). The tracer used for the assay was tritiated A-804598. The compound can be prepared as described in the literature. […] The assay was terminated by filtration (GF/B filters pre-soaked with 0.3% PEI) and washed with washing buffer (Tris-HCl 50 mM). The IC50 generated in the binding assay was corrected for tracer concentration and affinity of the tracer to derive at the affinity (Ki) of the test compounds.
T1 sequence (Q99572 whole entry): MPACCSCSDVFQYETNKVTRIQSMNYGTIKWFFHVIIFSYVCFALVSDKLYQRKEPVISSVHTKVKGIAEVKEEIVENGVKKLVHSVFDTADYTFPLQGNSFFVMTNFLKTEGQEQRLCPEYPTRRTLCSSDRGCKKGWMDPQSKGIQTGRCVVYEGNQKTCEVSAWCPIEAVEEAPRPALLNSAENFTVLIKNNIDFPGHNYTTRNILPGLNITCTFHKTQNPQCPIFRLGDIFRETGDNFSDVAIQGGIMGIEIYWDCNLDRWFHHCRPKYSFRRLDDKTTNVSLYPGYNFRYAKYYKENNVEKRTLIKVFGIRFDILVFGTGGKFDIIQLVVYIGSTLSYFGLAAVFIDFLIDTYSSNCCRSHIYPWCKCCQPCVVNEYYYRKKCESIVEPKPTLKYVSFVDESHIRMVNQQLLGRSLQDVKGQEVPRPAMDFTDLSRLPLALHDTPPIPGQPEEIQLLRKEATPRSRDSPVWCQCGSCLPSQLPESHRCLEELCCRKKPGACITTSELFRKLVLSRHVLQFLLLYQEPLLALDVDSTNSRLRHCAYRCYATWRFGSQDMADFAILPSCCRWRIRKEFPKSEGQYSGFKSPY

P2X purinoceptor 7 [2] = target: T2, P2X purinoceptor 7 (Rattus norvegicus, UniProt Q64663); test: as §1
T2 sequence (Q64663 whole entry): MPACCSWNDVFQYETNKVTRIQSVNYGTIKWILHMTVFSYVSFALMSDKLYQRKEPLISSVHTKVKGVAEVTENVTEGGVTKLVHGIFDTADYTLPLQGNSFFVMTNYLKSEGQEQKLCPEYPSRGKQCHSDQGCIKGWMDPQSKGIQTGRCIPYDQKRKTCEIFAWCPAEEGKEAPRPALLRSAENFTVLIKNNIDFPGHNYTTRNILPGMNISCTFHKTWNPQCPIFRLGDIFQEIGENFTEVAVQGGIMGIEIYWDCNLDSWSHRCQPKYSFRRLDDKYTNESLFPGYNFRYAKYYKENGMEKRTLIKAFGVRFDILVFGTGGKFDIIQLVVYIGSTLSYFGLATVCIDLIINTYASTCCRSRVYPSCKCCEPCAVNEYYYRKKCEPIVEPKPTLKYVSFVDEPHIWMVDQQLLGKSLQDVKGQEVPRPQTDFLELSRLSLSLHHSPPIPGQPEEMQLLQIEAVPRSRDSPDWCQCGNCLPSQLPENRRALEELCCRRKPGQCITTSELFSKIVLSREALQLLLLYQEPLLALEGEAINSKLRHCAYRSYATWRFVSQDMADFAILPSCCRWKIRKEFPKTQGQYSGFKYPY

- IC50 (P2X purinoceptor 7 [1]): 16.5 nM
- IC50 (P2X purinoceptor 7 [2]): 10.2 nM
SMILES: Cc1c(C(=O)N2Cc3nnn(C4=NN=CC4)c3CC2C)cccc1C(F)(F)F (configuration not stated)
